The text below walks through data of patent publication US20090246198A1, “MAPK/ERK KINASE INHIBITORS AND METHODS OF USE THEREOF” (TAKEDA PHARMACEUTICAL COMPANY LIMITED, priority 2008, published 2009).

T1 sequence (Q02750 with tags, fused parts or gaps DEL33-52/S218E/S222D): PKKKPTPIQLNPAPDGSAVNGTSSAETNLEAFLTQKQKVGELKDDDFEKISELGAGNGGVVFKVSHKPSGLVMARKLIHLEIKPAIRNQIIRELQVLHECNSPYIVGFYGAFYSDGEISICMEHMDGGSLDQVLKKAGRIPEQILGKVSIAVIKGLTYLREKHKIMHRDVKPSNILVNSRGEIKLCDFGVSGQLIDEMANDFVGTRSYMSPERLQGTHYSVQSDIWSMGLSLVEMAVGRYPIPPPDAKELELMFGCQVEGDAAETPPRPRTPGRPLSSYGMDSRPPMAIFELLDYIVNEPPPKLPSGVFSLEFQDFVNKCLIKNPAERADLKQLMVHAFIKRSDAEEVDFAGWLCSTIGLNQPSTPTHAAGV

The experiment concerns the target T1, MEK1 (Homo sapiens, UniProt Q02750, DEL33-52/S218E/S222D).
T1 construct: 6-histidine tag (N); made in house; host or cells: MEK1: baculovirus / Spodoptera frugiperda Sf9; ERK1: E. coli
Briefly: MEK1 inhibition, fluorescence polarization (IMAP) assay with ERK1 and FI-Erktide. It is filed as biochemical. The note with it: 1 nM MEK1, 25 nM ERK1, 400 μM ATP, 22 min at room temperature; read-out: pIC50 (nM); IC50 of Exemplified Compounds against MEK1 (converted). Here is the method: […] […] […] SEQ ID NO: 2 is the DNA sequence that was used to encode SEQ ID NO: 1.
The inhibitory properties of compounds relative to MEK1 or MEK2 may be determined using a black 384-well-plate format under the following reaction conditions: 50 mM HEPES pH 7.3, 10 mM NaCl, 10 mM MgCl2, 0.01% Brij35, 1 nM MEK1 or 4 nM MEK2, 25 nM ERK1, 400 μM ATP, 500 nM IPTTPITTYFFFK-5FAM-COOH (FI-Erktide), and 1% DMSO. Reaction product is determined quantitatively by fluorescent polarization using progressive IMAP beads from Molecular Devices.
The assay reaction may be initiated as follows: 2 μl of the mixture of 1.5 μM FI-Erktide and 75 nM ERK with 2 μl of inhibitor (2 fold serial dilutions for 11 data points for each inhibitor) containing 3% DMSO were added to each well of the plate, followed by the addition of 2 μl of the mixture of 3 nM MEK1 or 12 nM MEK2and 1200 μM ATP to initiate the reaction (final enzyme concentration was 1 nM for MEK1 or 4 nM for MEK2). The reaction mixture may then be incubated at room temperature for 22 min, and quenched and developed by addition of 20 μl of 1:200 dilution of progressive IMAP beads (Molecular Devices) in 80% buffer A, 20% buffer B and 0.003% Tween 20. Fluorescence polarization of the resulting reaction mixtures may be measured after a 1 hour incubation at room temperature.
IC50 values may be calculated by non-linear curve fitting of the compound concentrations and fluorescence polarization signal to the standard IC50 equation.
As for `Cn1c(=O)cc(Nc2ccc(Br)cc2F)c2c(=O)n(CC(O)CO)ccc21` (racemic) [Example 2, 4-(4-bromo-2-fluorophenylamino)-6-(2,3-dihydroxypropyl)-1-methyl-1,6-naphthyridine-2,5(1H,6H)-dione], the IC50 is < 100 nM.
Under `Cn1c(=O)cc(Nc2ccc(I)cc2F)c2c(=O)n(C[C@@H](O)CO)ccc21` [Example 1R, (R)-6-(2,3-dihydroxypropyl)-4-(2-fluoro-4-iodophenylamino)-1-methyl-1,6-naphthyridine-2,5(1H,6H)-dione] stands < 100 nM; under `Cn1c(=O)cc(Nc2ccc(I)cc2F)c2c(=O)n(C[C@H](O)CO)ccc21` [Example 1S, (S)-6-(2,3-dihydroxypropyl)-4-(2-fluoro-4-iodophenylamino)-1-methyl-1,6-naphthyridine-2,5(1H,6H)-dione], < 100 nM; under `Cn1c(=O)cc(Nc2ccc(Br)cc2F)c2c(=O)n(C[C@@H](O)CO)ccc21` [Example 2R, (R)-4-(4-bromo-2-fluorophenylamino)-6-(2,3-dihydroxypropyl)-1-methyl-1,6-naphthyridine-2,5(1H,6H)-dione], ≥ 100 nM.
`Cn1c(=O)cc(Nc2ccc(Br)cc2F)c2c(=O)n(C[C@H](O)CO)ccc21` [Example 2S, (S)-4-(4-bromo-2-fluorophenylamino)-6-(2,3-dihydroxypropyl)-1-methyl-1,6-naphthyridine-2,5(1H,6H)-dione]: the IC50 is < 100 nM.
Under `Cn1c(=O)c(F)c(Nc2ccc(I)cc2F)c2c(=O)n(C[C@@H](O)CO)ccc21` [Example 3R, (R)-6-(2,3-dihydroxypropyl)-3-fluoro-4-(2-fluoro-4-iodophenylamino)-1-methyl-1,6-naphthyridine-2,5(1H,6H)-dione] stands < 100 nM; under `Cn1c(=O)c(F)c(Nc2ccc(I)cc2F)c2c(=O)n(C[C@H](O)CO)ccc21` [Example 3S, (S)-6-(2,3-dihydroxypropyl)-3-fluoro-4-(2-fluoro-4-iodophenylamino)-1-methyl-1,6-naphthyridine-2,5(1H,6H)-dione], < 100 nM.
In the case of `Cn1c(=O)c(F)c(Nc2ccc(Br)cc2F)c2c(=O)n(C[C@@H](O)CO)ccc21` [Example 4, (R)-4-(4-bromo-2-fluorophenylamino)-6-(2,3-dihydroxypropyl)-3-fluoro-1-methyl-1,6-naphthyridine-2,5(1H,6H)-dione], the IC50 is < 100 nM.
Under `C#Cc1ccc(Nc2c(F)c(=O)n(C)c3ccn(C[C@@H](O)CO)c(=O)c23)c(F)c1` [Example 5, (R)-6-(2,3-dihydroxypropyl)-4-(4-ethynyl-2-fluorophenylamino)-3-fluoro-1-methyl-1,6-naphthyridine-2,5(1H,6H)-dione] stands < 100 nM; under `Cn1c(=O)cc(Nc2ccc(C3CC3)cc2F)c2c(=O)n(C[C@@H](O)CO)ccc21` [Example 6, (R)-4-(4-cyclopropyl-2-fluorophenylamino)-6-(2,3-dihydroxypropyl)-1-methyl-1,6-naphthyridine-2,5(1H,6H)-dione], ≥ 100 nM.
